Results reported in patent US11357779B2 (G1 Therapeutics, Inc., priority 2018, dated 2022).
Like-named read-outs stand apart in the source and are kept apart here.

Experiments:
[1] = Pharmacokinetics of Compound I in healthy volunteers after a single dose of Form B of Compound II; assay type: in vivo, human; conditions: for AUC(0-inf) / Cmax / Tmax / half-life / Vd/F: human, oral; for Vd/F: read-out: Vz/F
Experimental: Table 84 provides the pharmacokinetic parameters of Compound I upon administration of a single dose of Form B of Compound II (48, 100, 200, 300, 400, or 600 mg) in healthy volunteers. Blood samples for analysis of Compound I were collected pre-dose and 0.25, 0.5, 1, 1.5, 2, 3, 4, 6, 8, 12, 24, 36, 48, 72, and 96 hours post-dose.

clinical = conditions: human, in vivo
tumor = conditions: mice, single dosage of 100 mg/kg; cited from earlier work
[2] = Crystallization and slurry experiments, morphic forms of Compound II (XRPD, characterization); assay type: physicochemical; conditions: for Time point (1 day) XRPD: Stirring at RT
Experimental: Eleven unique XRPD patterns (Form A-Form K) of Compound II were obtained from crystallization and slurry experiments using various solvents.
Forms A, B, and D were evaluated as solid state forms.

[3] = blood, single 100 mg dose of Form B of Compound II
[4] = blood, single 200 mg dose of Form B of Compound II
[5] = blood, single 300 mg dose of Form B of Compound II
[6] = plasma, single 48 mg dose of Form B of Compound II
[7] = plasma, single 400 mg dose of Form B of Compound II
[8] = plasma, single 600 mg dose of Form B of Compound II

## CC(C)N1CCN(c2ccc(Nc3ncc4cc5n(c4n3)C3(CCCCC3)CNC5=O)nc2)CC1 [Compound I, 2′-((5-(4-isopropylpiperazin-1-yl)pyridin-2-yl)amino)-7′,8′-dihydro-6′H-spiro[cyclohexane-1,9′-pyrazino[1′,2′:1,5]pyrrolo[2,3-d]pyrimidin]-6′-one]
[1]; [3]
  AUC(0-inf): 60.2 ng·h/mL
  Cmax: 9.23 ng/mL
  Tmax: 2 h
  half-life: 4.71 h
  Vd/F: 11300 L
[1]; [4]
  AUC(0-inf): 275 ng·h/mL
  Cmax: 29.3 ng/mL
  Tmax: 3 h
  half-life: 13.8 h
  Vd/F: 14500 L
[1]; [5]
  AUC(0-inf): 349 ng·h/mL
  Cmax: 27 ng/mL
  Tmax: 3.5 h
  half-life: 15.4 h
  Vd/F: 19100 L
[1]; blood, single 400 mg dose of Form B of Compound II
  Tmax: 5 h
[1]; [6]
  AUC(0-inf): 20.4 ng·h/mL
  Cmax: 3.65 ng/mL
  Tmax: 2 h
  half-life: 3.07 h
  Vd/F: 10400 L
[1]; [7]
  AUC(0-inf): 432 ng·h/mL
  Cmax: 26.3 ng/mL
  half-life: 14.9 h
  Vd/F: 19900 L
[1]; [8]
  AUC(0-inf): 886 ng·h/mL
  Cmax: 59 ng/mL
  Tmax: 6 h
  half-life: 17.2 h
  Vd/F: 16800 L
[1]; single 48 mg dose of Form B of Compound II
  CL/F: 2354 L/h
[1]; single 100 mg dose of Form B of Compound II
  CL/F: 1660 L/h
[1]; single 200 mg dose of Form B of Compound II
  CL/F: 727 L/h
[1]; single 300 mg dose of Form B of Compound II
  CL/F: 861 L/h
[1]; single 400 mg dose of Form B of Compound II
  CL/F: 926 L/h
[1]; single 600 mg dose of Form B of Compound II
  CL/F: 677 L/h
clinical; 200 mg
  AUC(0-t): 229 ng·h/mL
clinical; 300 mg
  AUC(0-t): 592 ng·h/mL
clinical; 400 mg
  AUC(0-t): 278 ng·h/mL
clinical; 500 mg
  AUC(0-t): 607 ng·h/mL
clinical; 650 mg
  (AUC0-24,ss)/ANC: 0.89
  AUC(0-t): 956 ng·h/mL
tumor
  distribution to tumor: concentrates in the tumor

## CC(C)N1CCN(c2ccc(Nc3ncc4cc5n(c4n3)C3(CCCCC3)CNC5=O)nc2)CC1 [Compound II, 2′-((5-(4-isopropylpiperazin-1-yl)pyridin-2-yl)amino)-7′,8′-dihydro-6′H-spiro[cyclohexane-1,9′-pyrazino[1′,2′:1,5]pyrrolo[2,3-d]pyrimidin]-6′-one]
[2]; MeOH/0.5 mL, 60.0° C., Fast Cooling (4° C.), anti solvent EtOAc/0.2 mL, ppt/filter
  XRPD: Weak crystalline
[2]; MeOH/0.5 mL, 60.0° C., Fast Cooling (4° C.), anti solvent n-BuOH/5.0 mL, ppt/filter
  XRPD: Weak crystalline
[2]; MeOH/0.5 mL, 60.0° C., Fast Cooling (4° C.), anti solvent n-PrOH/5.0 mL, ppt/filter
  XRPD: Weak crystalline
[2]; MeOH/0.5 mL, 60.0° C., Slow Cooling (20° C./hr), anti solvent Acetone/0.5 mL, ppt/filter
  XRPD: Weak crystalline
[2]; MeOH/0.5 mL, 60.0° C., Slow Cooling (20° C./hr), anti solvent EtOH/5.0 mL, ppt/filter
  XRPD: Weak crystalline
[2]; MeOH/0.5 mL, 60.0° C., Slow Cooling (20° C./hr), anti solvent MIBK/0.1 mL, ppt/filter (first listing)
  XRPD: Weak crystalline
[2]; MeOH/0.5 mL, 60.0° C., Slow Cooling (20° C./hr), anti solvent MeCN/2.5 mL, ppt/filter
  XRPD: Weak crystalline
[2]; MeOH/0.5 mL, 60.0° C., Slow Cooling (20° C./hr), anti solvent THF/0.5 mL, ppt/filter
  XRPD: Weak crystalline
[2]; MeOH/0.5 mL, 60.0° C., Slow Cooling (20° C./hr), anti solvent Toluene/1.5 mL, ppt/filter (second listing)
  XRPD: Weak crystalline
[2]; MeOH/0.5 mL, 60.0° C., Slow Cooling (20° C./hr), anti solvent n-BuOH/5.0 mL, ppt/filter
  XRPD: Weak crystalline
[2]; MeOH/0.5 mL, 60.0° C., Slow Cooling (20° C./hr), anti solvent n-PrOH/5.0 mL, ppt/filter
  XRPD: Weak crystalline
[2]; Water/0.5 mL, 60.0° C., Fast Cooling (4° C.), anti solvent EtOH/5.0 mL, Clear/Evap.
  XRPD: Weak crystalline
[2]; Water/0.5 mL, 60.0° C., Fast Cooling (4° C.), anti solvent MeCN/5.0 mL, ppt/filter
  XRPD: Weak crystalline
[2]; Water/0.5 mL, 60.0° C., Fast Cooling (4° C.), anti solvent THF/3.0 mL, ppt/filter
  XRPD: Weak crystalline
[2]; Water/0.5 mL, 60.0° C., Fast Cooling (4° C.), anti solvent n-PrOH/5.0 mL, Clear/Evap.
  XRPD: Weak crystalline
[2]; Water/0.5 mL, 60.0° C., Slow Cooling (20° C./hr), anti solvent EtOH/5.0 mL, Clear/Evap.
  XRPD: Weak crystalline
[2]; single solvent crystallization: 1-BuOH 4.0 mL, 60° C., Fast Cooling (4° C.), ppt/filter
  XRPD: Weak
[2]; single solvent crystallization: 1-PrOH 4.0 mL, 60° C., Fast Cooling (4° C.), ppt/filter
  XRPD: Weak
[2]; single solvent crystallization: 1-PrOH 4.0 mL, 60° C., Slow (20° C./hr), ppt/filter
  XRPD: Weak
[2]; single solvent crystallization: MeOH 0.5 mL, 60° C., Fast Cooling (4° C.), ppt/filter
  XRPD: Weak
[2]; single solvent crystallization: Water 2.0 mL, 60° C., Fast Cooling (4° C.), Turbid/Evap.
  XRPD: Weak
[2]; single solvent crystallization: Water 2.0 mL, 60° C., Slow (20° C./hr), Turbid/Evap.
  XRPD: Weak
[2]; slurry in 2-MeTHF 1.0 mL
  Time point (1 day) XRPD: Weak
[2]; slurry in IPAc 1.0 mL
  Time point (1 day) XRPD: A with extra
[2]; slurry in MEK 1.0 mL
  Time point (1 day) XRPD: Weak
[2]; slurry in THF 1.0 mL
  Time point (1 day) XRPD: Weak
